The values that follow are results of earlier work, collected in patent publication US10160778B2, “Pyrimidine phosphonic acid esters” (Concert Pharmaceuticals, Inc., priority 2014, dated 2018).

The conditions of the data set: phase II study for the prevention of cytomegalovirus infection.

On to `CCCCCCCCCCCCCCCCOCCCOP(=O)(O)CO[C@H](CO)Cn1ccc(N)nc1=O` [brincidofovir, 3-(hexadecyloxy)propyl hydrogen ((((S)-1-(4-amino-2-oxopyrimidin-1 (2H)-yl)-3-hydroxypropan-2-yl)oxy)methyl)phosphonate], for which the dose-limiting side effect entry is recorded as “diarrhea”.
